Data from patent US10369130B2, “Antibacterial compounds” (AZIENDE CHIMICHE RIUNITE ANGELINI FRANCESCO A.C.R.A.F. …, priority 2014, dated 2019).
Structures can show the parent of a compound that is named as a salt.

Columns and labels:
Assay type in all cases: biochemical
Conditions in all cases: single concentration (200, 100 or 50 μM), in duplicate, versus the positive control (vehicle)
[1] = molecular target: T1, DNA gyrase (Escherichia coli, UniProt P0AES4+P0AES6); assay: DNA gyrase supercoiling assay (E. coli)
T1 construct: purchased Inspiralis, UK
Protocol: (§1) The above compounds were tested for the inhibition of the enzyme DNA gyrase in a gyrase supercoiling assay and for the inhibition of the enzyme topoisomerase IV in a decatenation assay, in both Gram positive and Gram negative bacteria, according to the following methods.
(§2) Both the assays were carried out according to a set-up method modified from the article to Blanche F, et al. “Differential Behaviors of Staphylococcus aureus and Escherichia coli Type II DNA Topoisomerases”, Antimicrob.
(§3) The compounds were screened at single concentration (200, 100 or 50 μM), in duplicate.
(§4) Ciprofloxacin and novobiocin were used as reference compounds, at single concentration of 200 and 50 μM, respectively.
(§5) DNA Gyrase Supercoiling Assay.
(§6) Reagents from S. aureus and E. coli Gyrase Supercoiling Assay kits (Inspiralis, UK) were used. A master mix with a total volume sufficient for the number of reactions to perform was prepared with the following reagents: 5× assay buffer, relaxed pBR322 substrate (0.5 μg/reaction), RNase-DNase free water. Aliquotes of this mix were dispensed in each tube, then 10× compound stock solutions or vehicle control (DMSO), were added to each reaction tube.
(§7) Reaction was started with E. Coli (2 U/reaction) or S. aureus (1 U/reaction) gyrase enzyme addition.
(§8) A sample added with an equal volume of dilution buffer was used as negative control (without enzyme).
(§9) The reaction tubes were gentle vortexed and incubated 30 minutes at 37° C. Each reaction was stopped by adding 30 μl of Stop Buffer and 30 μl chloroform/isoamyl alcohol (24/1), briefly vortexed for 5-10 seconds and centrifuged at 20000×g for 2 minutes. Samples were loaded onto 1% agarose gel and subjected to electrophoresis for 1 hour at 80V constant voltage in TAE (40 mM Tris-acetate, 2 mM EDTA).
(§10) Data acquisition and analysis. Treatment of relaxed pBR322 with DNA gyrase converted the relaxed topoisomers (DNAs of different linking number) to the supercoiled form of the plasmid, which migrates faster on an agarose gel. An upper band might also be visible, which consists of open-circular (nicked) DNA which is present in the relaxed substrate but co-migrates with some of the relaxed topoisomers.
(§11) Bands were visualized by ethidium bromide staining (dil 1:20000) for 30 minutes followed by destaining in distilled water for 10 minutes.
(§12) In order to evaluate the compounds activity on the enzyme, the bands of supercoiled DNAs in the gel were photographed by a digital imaging system ImageQuant LAS 4000 (GE Healthcare) according to manufacturer's instructions.
(§13) The fluorescent intensity of each band was analysed by ImageQuant TL software and it was expressed as volume (volume of the uncalibrated quantity of material in the image feature after subtraction of the background intensity by using rolling ball method).
(§14) Each band intensity was compared, as percentage, to vehicle sample band intensity, which served as positive control, on the same gel.
(§15) Inhibitory activity was expressed as percent of inhibition versus the positive control.

[2] = molecular target: T2, DNA gyrase (Staphylococcus aureus, UniProt P0A0K8+P20831); assay: DNA gyrase supercoiling assay (S. aureus)
T2 construct: purchased Inspiralis, UK
Protocol: as §1, §2, §3, §4, §5, §6, §7, §8, §9, §10, §11, §12, §13, §14, §15

[3] = molecular target: T3, Topoisomerase IV (Staphylococcus aureus, UniProt P0C1S7+P0C1U9); assay: Topoisomerase IV decatenation assay (S. aureus)
T3 construct: purchased Inspiralis, UK
Protocol: as §1, §2, §3, §4
(§16) Topoisomerase IV Decatenation Assay
(§17) S. aureus and E. coli Topoisomerase IV decatenation kits (Inspiralis, UK) were used. A master mix with a total volume sufficient for the number of reactions to perform was prepared with the following reagents: 5× assay buffer (50 mM HEPES-KOH (pH 7.6), 100 mM potassium glutamate, 10 mM magnesium acetate, 10 mM DTT, 1 mM ATP, 50 μg/ml albumin), kDNA substrate (200 ng/reaction), RNase-DNase free water. Aliquots of this mix were dispensed in each tube, then 10× compound stock solutions or vehicle control (DMSO), were added in each reaction tube.
(§18) Reaction was started with Topoisomerase IV enzyme (0.5 U/reaction) addition.
as §8
(§19) The reaction tubes were gentle vortexed and incubated 30 minutes at 37° C. Each reaction was stopped by adding 30 μl of Stop Buffer and 30 μl of chloroform/isoamyl alcohol (24/1), briefly vortexed for 5-10 seconds and centrifuged at 20000×g for 2 minutes. Samples taken from the upper phase were loaded into 1% agarose gel and subjected to electrophoresis for 1 hour at 80V constant voltage in TAE (40 mM Tris-acetate, 2 mM EDTA).
(§20) Data acquisition and analysis. Due to the high molecular mass, kDNA could not enter an agarose gel under normal electrophoresis conditions, but remained in the wells. In the presence of Topo IV topoisomerase mini-circles (2.5 Kb) were released from kDNA by decatenation and were quickly and easily resolved in the gel at relatively high voltages.
as §11
(§21) For single concentration screening assay, in order to evaluate the compounds activity on the enzymes, the bands of decatenated DNAs in the gel were photographed by a digital imaging system ImageQuant LAS 4000 (GE Healthcare) according to manufacturer's instructions.
(§22) The fluorescent intensity of each band was analyzed by ImageQuant TL software and it was expressed as volume (volume of the uncalibrated quantity of material in the image feature after subtraction of the background intensity by using rolling ball method).
as §14, §15

[4] = molecular target: T4, Topoisomerase IV (Escherichia coli, UniProt P0AFI2+P20083); assay: Topoisomerase IV decatenation assay (E. coli)
T4 construct: purchased Inspiralis, UK
Protocol: as §1, §2, §3, §4, §16, §17, §18, §8, §19, §20, §11, §21, §22, §14, §15

T1 sequence (P0AES4 whole entry, one chain of several): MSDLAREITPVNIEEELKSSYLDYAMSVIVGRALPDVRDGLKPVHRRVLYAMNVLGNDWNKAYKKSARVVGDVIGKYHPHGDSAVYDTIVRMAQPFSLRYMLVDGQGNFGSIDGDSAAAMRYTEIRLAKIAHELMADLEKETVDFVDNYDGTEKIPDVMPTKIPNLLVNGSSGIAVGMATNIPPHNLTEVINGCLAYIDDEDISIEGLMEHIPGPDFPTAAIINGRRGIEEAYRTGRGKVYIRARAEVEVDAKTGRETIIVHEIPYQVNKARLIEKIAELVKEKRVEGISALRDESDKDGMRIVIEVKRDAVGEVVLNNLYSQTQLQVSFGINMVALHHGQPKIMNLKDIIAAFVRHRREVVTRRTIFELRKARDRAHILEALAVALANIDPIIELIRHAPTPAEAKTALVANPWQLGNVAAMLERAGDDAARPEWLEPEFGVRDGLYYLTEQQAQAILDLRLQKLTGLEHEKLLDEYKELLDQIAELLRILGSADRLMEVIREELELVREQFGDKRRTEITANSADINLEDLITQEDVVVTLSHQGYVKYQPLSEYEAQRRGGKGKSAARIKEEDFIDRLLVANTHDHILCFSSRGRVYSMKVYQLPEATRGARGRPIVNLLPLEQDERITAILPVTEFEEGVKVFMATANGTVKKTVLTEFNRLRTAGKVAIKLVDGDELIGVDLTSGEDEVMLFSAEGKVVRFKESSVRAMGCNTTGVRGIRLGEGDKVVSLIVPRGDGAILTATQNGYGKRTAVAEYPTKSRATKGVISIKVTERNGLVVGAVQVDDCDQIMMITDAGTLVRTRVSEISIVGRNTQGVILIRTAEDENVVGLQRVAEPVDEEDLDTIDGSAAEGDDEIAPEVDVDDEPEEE
T4 sequence (P20083 whole entry): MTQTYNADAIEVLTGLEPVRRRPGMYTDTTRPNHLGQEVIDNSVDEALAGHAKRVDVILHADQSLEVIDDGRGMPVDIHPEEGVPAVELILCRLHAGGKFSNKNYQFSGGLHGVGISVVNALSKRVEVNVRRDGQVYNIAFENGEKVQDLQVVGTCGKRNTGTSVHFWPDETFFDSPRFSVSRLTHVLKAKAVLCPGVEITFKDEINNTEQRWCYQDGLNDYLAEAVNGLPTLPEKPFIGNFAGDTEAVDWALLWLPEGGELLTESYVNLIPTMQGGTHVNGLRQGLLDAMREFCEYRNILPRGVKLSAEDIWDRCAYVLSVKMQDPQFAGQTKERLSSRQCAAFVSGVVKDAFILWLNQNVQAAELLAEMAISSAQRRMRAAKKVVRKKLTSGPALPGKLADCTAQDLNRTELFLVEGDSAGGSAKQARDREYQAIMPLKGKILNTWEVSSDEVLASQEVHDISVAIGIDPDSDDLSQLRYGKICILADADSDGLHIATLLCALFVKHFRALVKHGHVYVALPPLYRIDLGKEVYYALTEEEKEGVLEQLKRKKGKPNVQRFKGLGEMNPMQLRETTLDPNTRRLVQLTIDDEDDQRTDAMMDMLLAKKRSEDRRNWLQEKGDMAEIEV
T4 sequence (P0AFI2 whole entry): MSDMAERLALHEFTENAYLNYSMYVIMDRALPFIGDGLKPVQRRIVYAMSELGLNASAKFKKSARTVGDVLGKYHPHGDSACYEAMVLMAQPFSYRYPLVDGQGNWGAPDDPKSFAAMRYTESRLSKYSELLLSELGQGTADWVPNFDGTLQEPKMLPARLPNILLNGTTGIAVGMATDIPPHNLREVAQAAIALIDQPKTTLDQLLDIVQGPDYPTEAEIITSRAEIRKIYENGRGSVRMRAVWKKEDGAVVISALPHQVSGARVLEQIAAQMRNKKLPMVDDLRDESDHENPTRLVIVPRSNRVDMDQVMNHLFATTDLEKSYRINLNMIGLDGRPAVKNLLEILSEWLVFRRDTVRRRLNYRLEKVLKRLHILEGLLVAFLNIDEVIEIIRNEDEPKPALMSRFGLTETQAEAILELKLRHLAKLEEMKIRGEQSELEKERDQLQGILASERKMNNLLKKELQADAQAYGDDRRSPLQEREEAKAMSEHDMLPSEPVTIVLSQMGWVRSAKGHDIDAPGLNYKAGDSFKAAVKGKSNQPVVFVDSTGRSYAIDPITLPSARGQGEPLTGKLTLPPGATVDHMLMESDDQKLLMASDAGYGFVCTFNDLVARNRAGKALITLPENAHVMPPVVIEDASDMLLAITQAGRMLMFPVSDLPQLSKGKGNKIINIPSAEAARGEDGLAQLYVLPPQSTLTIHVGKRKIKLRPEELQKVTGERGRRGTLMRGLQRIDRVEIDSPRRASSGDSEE
T3 sequence (P0C1S7 whole entry): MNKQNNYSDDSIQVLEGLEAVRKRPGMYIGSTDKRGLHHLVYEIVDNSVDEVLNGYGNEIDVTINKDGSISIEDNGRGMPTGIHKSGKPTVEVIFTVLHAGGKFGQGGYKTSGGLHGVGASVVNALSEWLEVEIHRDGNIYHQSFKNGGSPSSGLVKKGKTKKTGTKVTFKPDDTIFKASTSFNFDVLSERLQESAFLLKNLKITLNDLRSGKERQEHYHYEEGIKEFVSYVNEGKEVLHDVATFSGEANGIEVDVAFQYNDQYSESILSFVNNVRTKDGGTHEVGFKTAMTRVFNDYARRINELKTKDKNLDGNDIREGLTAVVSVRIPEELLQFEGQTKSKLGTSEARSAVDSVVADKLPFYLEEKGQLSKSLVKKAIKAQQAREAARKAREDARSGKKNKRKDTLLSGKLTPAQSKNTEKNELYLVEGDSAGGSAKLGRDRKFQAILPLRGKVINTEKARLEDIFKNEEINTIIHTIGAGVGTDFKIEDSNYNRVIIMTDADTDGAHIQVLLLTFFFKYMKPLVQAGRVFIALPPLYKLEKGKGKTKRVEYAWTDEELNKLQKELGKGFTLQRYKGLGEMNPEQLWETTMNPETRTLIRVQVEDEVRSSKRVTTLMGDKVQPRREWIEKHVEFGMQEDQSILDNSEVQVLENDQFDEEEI
T3 sequence (P0C1U9 whole entry): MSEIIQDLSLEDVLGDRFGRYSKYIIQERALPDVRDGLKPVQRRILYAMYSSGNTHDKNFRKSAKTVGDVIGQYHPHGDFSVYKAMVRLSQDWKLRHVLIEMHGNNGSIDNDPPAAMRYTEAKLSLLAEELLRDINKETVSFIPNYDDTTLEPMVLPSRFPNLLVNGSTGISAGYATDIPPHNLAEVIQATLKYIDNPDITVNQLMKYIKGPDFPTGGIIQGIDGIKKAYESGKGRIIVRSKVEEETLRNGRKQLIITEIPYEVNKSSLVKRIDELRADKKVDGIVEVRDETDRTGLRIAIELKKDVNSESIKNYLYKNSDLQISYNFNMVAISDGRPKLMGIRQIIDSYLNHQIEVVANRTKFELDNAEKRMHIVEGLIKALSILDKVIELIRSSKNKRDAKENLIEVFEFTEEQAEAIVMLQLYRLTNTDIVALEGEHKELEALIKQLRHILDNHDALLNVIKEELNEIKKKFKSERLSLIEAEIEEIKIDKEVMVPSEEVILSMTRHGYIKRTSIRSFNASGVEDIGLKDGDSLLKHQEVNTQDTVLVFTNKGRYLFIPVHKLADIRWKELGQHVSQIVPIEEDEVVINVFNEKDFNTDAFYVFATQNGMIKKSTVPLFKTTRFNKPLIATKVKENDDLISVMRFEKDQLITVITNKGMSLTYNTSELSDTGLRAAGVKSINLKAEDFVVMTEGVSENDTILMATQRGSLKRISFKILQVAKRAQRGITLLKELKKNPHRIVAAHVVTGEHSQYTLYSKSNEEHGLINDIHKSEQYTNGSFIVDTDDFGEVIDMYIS

## O=C(NCCCN1CCN(c2nccc3ccccc23)CC1)c1cccnc1 [Compound 2, N-{3-[4-(isoquinolin-1-yl)piperazin-1-yl]propyl}pyridine-3-carboxamide hydrochloride]
[1]
  % inhibition DNA gyrase: n/a (n/a = not active)
[2]
  % inhibition DNA gyrase: n/a (n/a = not active)
[3]
  % inhibition Topo IV: n/a (n/a = not active)
[4]
  % inhibition Topo IV: 65%

## O=C(NCCCN1CCN(c2nccc3ccccc23)CC1)c1ccccc1 [Compound 3, N-{3-[4-(isoquinolin-1-yl)piperazin-1-yl]propyl}benzamide hydrochloride]
[1]
  % inhibition DNA gyrase: 59%
[2]
  % inhibition DNA gyrase: n/a (n/a = not active)
[3]
  % inhibition Topo IV: n/a (n/a = not active)
[4]
  % inhibition Topo IV: n/a (n/a = not active)

## O=C(NCCN1CCN(c2nccc3ccccc23)CC1)c1ccccc1 [Compound 4, N-{2-[4-(isoquinolin-1-yl)piperazin-1-yl]ethyl}benzamide hydrochloride]
[1]
  % inhibition DNA gyrase: n/a (n/a = not active)
[2]
  % inhibition DNA gyrase: 84%
[3]
  % inhibition Topo IV: n/a (n/a = not active)
[4]
  % inhibition Topo IV: 53%

## Cc1cc2ccccc2c(N2CCN(CCCNC(=O)c3cccnc3)CC2)n1 [Compound 21, N-{3-[4-(3-methylisoquinolin-1-yl)piperazin-1-yl]propyl}pyridine-3-carboxamide hydrochloride]
[1]
  % inhibition DNA gyrase: n/a (n/a = not active)
[2]
  % inhibition DNA gyrase: 67%
[3]
  % inhibition Topo IV: n/a (n/a = not active)
[4]
  % inhibition Topo IV: n/a (n/a = not active)

## O=C(NCCCN1CCN(c2nccc3ccccc23)CC1)c1cnc2ccoc2c1 [Compound 31, N-{3-[4-(isoquinolin-1-yl)piperazin-1-yl]propyl}furo[3,2-b]pyridine-6-carboxamide hydrochloride]
[1]
  % inhibition DNA gyrase: n/a (n/a = not active)
[2]
  % inhibition DNA gyrase: 65%
[3]
  % inhibition Topo IV: n/a (n/a = not active)
[4]
  % inhibition Topo IV: n/a (n/a = not active)

## Cc1ccc2c(N3CCN(CCCNC(=O)c4cccnc4)CC3)nccc2c1 [Compound 35, N-{3-[4-(6-methylisoquinolin-1-yl)piperazin-1-yl]propyl}pyridine-3-carboxamide]
[1]
  % inhibition DNA gyrase: n/a (n/a = not active)
[2]
  % inhibition DNA gyrase: 78%
[3]
  % inhibition Topo IV: n/a (n/a = not active)
[4]
  % inhibition Topo IV: n/a (n/a = not active)

## COc1ccc2c(N3CCN(CCCNC(=O)c4cccnc4)CC3)nccc2c1 [Compound 36, N-{3-[4-(6-methoxyisoquinolin-1-yl)piperazin-1-yl]propyl}pyridine-3-carboxamide hydrochloride]
[1]
  % inhibition DNA gyrase: n/a (n/a = not active)
[2]
  % inhibition DNA gyrase: 90%
[3]
  % inhibition Topo IV: n/a (n/a = not active)
[4]
  % inhibition Topo IV: n/a (n/a = not active)

## Fc1ccc(F)c(CNCCCN2CCN(c3nccc4ccccc34)CC2)c1 [Compound 38, N-(2,5-difluorobenzyl)-3-[4-(isoquinolin-1-yl)piperazin-1-yl]propan-1-amine hydrochloride]
[1]
  % inhibition DNA gyrase: n/a (n/a = not active)
[2]
  % inhibition DNA gyrase: 63%
[3]
  % inhibition Topo IV: n/a (n/a = not active)
[4]
  % inhibition Topo IV: n/a (n/a = not active)

## O=C(NCCCN1CCN(c2nccc3ccccc23)CC1)c1cc(F)ccc1F [Compound 39, 2,5-difluoro-N-{3-[4-(isoquinolin-1-yl)piperazin-1-yl]propyl}benzamide hydrochloride]
[1]
  % inhibition DNA gyrase: 50%
[2]
  % inhibition DNA gyrase: 74%
[3]
  % inhibition Topo IV: n/a (n/a = not active)
[4]
  % inhibition Topo IV: n/a (n/a = not active)

## O=C(NCCCN1CCN(c2nccc3ccccc23)CC1)c1cc2ccoc2cn1 [Compound 42, N-{3-[4-(isoquinolin-1-yl)piperazin-1-yl]propyl}furo[2,3-c]pyridine-5-carboxamide hydrochloride]
[1]
  % inhibition DNA gyrase: n/a (n/a = not active)
[2]
  % inhibition DNA gyrase: 84%
[3]
  % inhibition Topo IV: n/a (n/a = not active)
[4]
  % inhibition Topo IV: n/a (n/a = not active)

## O=C(NCCCN1CCN(c2nccc3ncccc23)CC1)c1cccnc1 [Compound 43, N-{3-[4-(1,6-naphthyridin-5-yl)piperazin-1-yl]propyl}pyridine-3-carboxamide hydrochloride]
[1]
  % inhibition DNA gyrase: n/a (n/a = not active)
[2]
  % inhibition DNA gyrase: 100%
[3]
  % inhibition Topo IV: n/a (n/a = not active)
[4]
  % inhibition Topo IV: n/a (n/a = not active)

## O=C(NCCCN1CCN(c2nccc3cc(F)ccc23)CC1)c1cccnc1 [Compound 45, N-{3-[4-(6-fluoroisoquinolin-1-yl)piperazin-1-yl]propyl}pyridine-3-carboxamide hydrochloride]
[1]
  % inhibition DNA gyrase: n/a (n/a = not active)
[2]
  % inhibition DNA gyrase: 81%
[3]
  % inhibition Topo IV: n/a (n/a = not active)
[4]
  % inhibition Topo IV: n/a (n/a = not active)

## O=c1cc(NCCCN2CCN(c3cccc4ccccc34)CC2)c2ccccc2o1 [Compound 50, 4-({3-[4-(naphthalen-1-yl)piperazin-1-yl]propyl}amino)-2H-chromen-2-one hydrochloride]
[1]
  % inhibition DNA gyrase: 92%
[2]
  % inhibition DNA gyrase: n/a (n/a = not active)
[3]
  % inhibition Topo IV: n/a (n/a = not active)
[4]
  % inhibition Topo IV: n/a (n/a = not active)

## CN(CCCN1CCN(c2nccc3ccccc23)CC1)c1cc(=O)oc2ccccc12 [Compound 53, 4-[{3-[4-(isoquinolin-1-yl)piperazin-1-yl]propyl}(methyl)amino]-2H-chromen-2-one hydrochloride]
[1]
  % inhibition DNA gyrase: 64%
[2]
  % inhibition DNA gyrase: 57%
[3]
  % inhibition Topo IV: n/a (n/a = not active)
[4]
  % inhibition Topo IV: n/a (n/a = not active)

## O=c1cc(NCCCN2CCN(c3nccc4ccccc34)CC2)cc(-c2ccccc2)o1 [Compound 60, 4-({3-[4-(isoquinolin-1-yl)piperazin-1-yl]propyl}amino)-6-phenyl-2H-pyran-2-one hydrochloride]
[1]
  % inhibition DNA gyrase: 100%
[2]
  % inhibition DNA gyrase: 89%
[3]
  % inhibition Topo IV: n/a (n/a = not active)
[4]
  % inhibition Topo IV: n/a (n/a = not active)
